Consider 2 compounds from US20100009967A1, “SOLID DOSAGE FORMULATIONS OF T[…]” (priority 2008, published 2010).

The subject of data set [1] is CGRP. Conditions: clinical trials, Olesen et al. 2004; cited from earlier work.
Data set [2] concerns CGRP. To be noted: control group, Petersen et al. 2005; cited from earlier work.
The conditions of data set [3]: 25° C./75% relative humidity.

For the compound BIBN4096BS, the “efficacy in treating acute attacks of migraine” value in the data set on CGRP [1] is on record as “effective in treating acute attacks of migraine”. Besides, the “prevention of headache induced by CGRP infusion” value in the data set on CGRP [2] is listed as “able to prevent headache induced by CGRP infusion”.

In turn, `O=C(N[C@@H]1CC[C@@H](c2cccc(F)c2F)CN(CC(F)(F)F)C1=O)N1CCC(n2c(=O)[nH]c3ncccc32)CC1` [spray-dried amorphous form] gave a Water content in data set [3] of 18%.
